Data set [1] deals with T1, hSARM1 (Homo sapiens, UniProt Q6SZW1).
T1 sequence (Q6SZW1 28-724): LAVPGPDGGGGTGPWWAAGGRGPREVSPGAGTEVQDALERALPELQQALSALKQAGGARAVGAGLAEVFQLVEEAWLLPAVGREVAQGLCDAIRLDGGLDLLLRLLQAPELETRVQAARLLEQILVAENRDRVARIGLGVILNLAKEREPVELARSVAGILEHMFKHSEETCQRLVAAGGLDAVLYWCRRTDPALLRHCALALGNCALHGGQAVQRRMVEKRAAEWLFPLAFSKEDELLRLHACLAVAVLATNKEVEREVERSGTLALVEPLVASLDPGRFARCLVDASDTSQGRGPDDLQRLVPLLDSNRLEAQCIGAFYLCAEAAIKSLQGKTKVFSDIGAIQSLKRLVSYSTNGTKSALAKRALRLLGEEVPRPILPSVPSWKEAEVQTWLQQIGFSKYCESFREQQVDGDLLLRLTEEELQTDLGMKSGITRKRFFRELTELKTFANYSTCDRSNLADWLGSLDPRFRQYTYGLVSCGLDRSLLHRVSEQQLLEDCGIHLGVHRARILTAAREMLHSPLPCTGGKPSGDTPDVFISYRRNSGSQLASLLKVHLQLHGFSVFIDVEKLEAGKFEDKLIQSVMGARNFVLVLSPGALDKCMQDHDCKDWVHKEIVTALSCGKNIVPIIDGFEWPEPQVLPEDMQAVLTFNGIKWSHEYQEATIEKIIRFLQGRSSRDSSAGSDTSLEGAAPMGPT
Briefly: SARM1 inhibitory activity using recombinant SARM1 (PC6 base exchange fluorescence). It counts as biochemical. The arrangement: purchased BPS Bioscience. The settings on record: recombinant human SARM1 2 ng/µL; NMN 10 µM; NAD 1 mM; PC6 50 µM; result in words. The method, then:
The SARM1 inhibitory activity was evaluated by the following method using recombinant SARM1 from BPS Bioscience.
NMN, an endogenous activator for SARM1, was added at a final concentration of 10 µM to a reaction solution (composition: 40 mM HEPES-KOH (pH 7.4), 0.1% polyvinyl alcohol, and 110 mM potassium acetate) using a 96-well black plate. Subsequently, serial dilutions of the test compound and recombinant human SARM1 (final concentration: 2 ng/µL) were added thereto and preincubated at room temperature for 5 to 10 minutes. NAD and PC6 were added as substrates at final concentrations of 1 mM and 50 µM, respectively, to each well and incubated at room temperature for 1 hour, followed by fluorescent signal measurement using SpectraMax M2 (Molecular Devices) (excitation: 390 nm, fluorescence: 520 nm, fluorescence cutoff: 515 nm) (Li et al, eLife 2021 10: e67381). The fluorescent signal was normalized by using fluorescence intensity measured from a control group without addition of recombinant human SARM1 as a background whereas using fluorescence intensity measured from a control group supplemented with recombinant human SARM1 as the negative control, and plotted as the function of the test compound concentrations, and the compound was evaluated for its SARM1 inhibitory activity by calculating IC50.

Data set [2] in a line: In vitro analysis of metabolite production with a UV (254 nm) chromatogram.
For data set [3] the following is noted: mouse, in vivo.
Experimental: Compound 35 was intravenously (iv: 1 mg/5 ml/kg) administered at a single dose to C57BL/6J male mice (about 10 weeks old (non-fasted), n = 3), and blood was collected 5, 15, and 30 minutes, and 1, 2, 4, 8, and 24 hours later. Likewise, compound 35 was orally (po: 10 mg/10 ml/kg) administered at a single dose to C57BL/6J male mice (about 10 weeks old (non-fasted), n = 3), and blood was collected 15 and 30 minutes, and 1, 2, 4, 8, and 24 hours later. Urine was collected from each mouse up to 24 hours after administration (pooled urine).

Molecules are shown by their SMILES.

With `Nc1ncnc2c1ncn2[C@@H]1O[C@H](COP(=O)([O-])OP(=O)(O)OC[C@H]2O[C@@H]([n+]3cccc(C(=O)NCc4ccc(NC(=O)c5ccccc5)nc4)c3)[C@H](O)[C@@H]2O)[C@@H](O)[C@H]1O` [compound 105-NAD-like metabolite], the SARM1 inhibitory activity result in data set [1] is given as “exhibited stronger activity in this order”.
As to `O=C(NCc1ccc(NC(=O)c2ccccc2)nc1)c1ccc[n+]([C@@H]2O[C@H](CO)[C@@H](O)[C@H]2O)c1` [compound 105-riboside form], in data set [1], the SARM1 inhibitory activity result is given as “exhibited stronger activity in this order”. In addition, the production of metabolites entry in data set [2] is “confirmed”.
For the compound `Nc1ncnc2c1ncn2[C@@H]1O[C@H](COP(=O)([O-])OP(=O)(O)OC[C@H]2O[C@@H]([n+]3cccc(C(=O)NCCCOCCOCCCNC(=O)c4cccnc4)c3)[C@H](O)[C@@H]2O)[C@@H](O)[C@H]1O` [compound 35-NAD-like metabolite], in data set [1], the SARM1 inhibitory activity entry is “stronger activity than that of compound 35”.
Regarding `CC(C)(C)C(=O)Nc1ccc(CNC(=O)c2ccc[n+]([C@@H]3O[C@H](COP(=O)([O-])O)[C@@H](O)[C@H]3O)c2)cn1` [compound 76-NMN-like metabolite], the “metabolites detected in the plasma” value in data set [3] is listed as “detected, albeit at a much lower concentration than that of compound 76”. The SARM1 inhibitory activity entry in data set [1] is “stronger activity than that of compound 76”.
Regarding `O=C(NCc1ccc(NC(=O)c2ccccc2)nc1)c1ccc[n+]([C@@H]2O[C@H](COP(=O)([O-])O)[C@@H](O)[C@H]2O)c1` [compound 105-NMN-like metabolite], the SARM1 inhibitory activity entry in data set [1] is “exhibited stronger activity in this order”.
Consider `O=C(NCCCOCCOCCCNC(=O)c1ccc[n+]([C@@H]2O[C@H](COP(=O)([O-])O)[C@@H](O)[C@H]2O)c1)c1cccnc1` [compound 35-NMN-like metabolite], for which, in data set [1], the SARM1 inhibitory activity entry is listed as “stronger activity than that of compound 35”.
On the same count and under the same terms, the entry for `CC(C)(C)C(=O)Nc1ccc(CNC(=O)c2ccc[n+]([C@@H]3O[C@H](COP(=O)(O)OP(=O)([O-])OC[C@H]4O[C@@H](n5cnc6c(N)ncnc65)[C@H](O)[C@@H]4O)[C@@H](O)[C@H]3O)c2)cn1` [compound 76-NAD-like metabolite] is “stronger activity than that of compound 76”.

Values taken from patent publication EP4793271A1, “NEUROPROTECTIVE AGENT” (National Center of Neurology and Psychiatry, priority 2023, dated 2025).
